Assay results published in patent US6100074A, “Mutant mono-oxygenase cytochrome P-450 cam” (BG plc, priority 1994, dated 2000).
Where two headings read alike, the source gives them in different places.

Legend:
[1] = biological target: P-450cam mutant Y96A (Pseudomonas putida, UniProt P00183, Y97A); experiment: biochemical; format: binding; details: read-out: Vs DTT (percentage displacement of DTT bound to P-450); for percent displacement of bound DTT at 200 µM: Mutant Y96A, 200 μM DTT, 200 μM test compound, phosphate buffer
[2] = biological target: T1, wild type P450cam (Pseudomonas putida, UniProt P00183); experiment: biochemical; format: binding; details: read-out: Vs DTT (percentage displacement of DTT bound to P-450)
Target sequence in this assay (P00183 whole entry): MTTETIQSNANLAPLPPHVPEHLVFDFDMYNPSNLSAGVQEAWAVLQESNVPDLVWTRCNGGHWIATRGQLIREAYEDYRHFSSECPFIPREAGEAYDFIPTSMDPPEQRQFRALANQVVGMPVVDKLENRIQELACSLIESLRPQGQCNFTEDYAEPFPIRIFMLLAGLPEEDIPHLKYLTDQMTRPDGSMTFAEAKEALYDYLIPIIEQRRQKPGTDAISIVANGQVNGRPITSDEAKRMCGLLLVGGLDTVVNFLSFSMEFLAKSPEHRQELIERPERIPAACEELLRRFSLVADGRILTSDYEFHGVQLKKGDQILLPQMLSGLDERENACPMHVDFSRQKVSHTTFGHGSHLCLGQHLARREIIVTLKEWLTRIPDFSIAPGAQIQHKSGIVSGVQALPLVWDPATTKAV

[3] = biological target: T1, wild type P450cam; format: binding; details: Wild type; 200 μM test compound, phosphate buffer pH 7.4
Target sequence in this assay (P00183 whole entry): as above

[4] = biological target: T1, wild type P450cam; experiment: Product distribution following oxidation of substrates, WT; format: biochemical, P. putida; design: reconstituted with putidaredoxin and putidaredoxin reductase
Experimental: (§1) […] The enzymatic reaction was initiated by firstly adding NADH to a total concentration of 2 mM. Further four aliquots of NADH (to increase the NADH concentration by 1 mM each time) were added in intervals of 5 min and the reaction quenched after 30 min by adding 0.5 ml chloroform. The chloroform layer was analysed by gas chromatography.
(§2) Reaction products for some substrate compounds have been purified by high performance liquid chromatography and identified by mass spectroscopy, nuclear magnetic resonance, and/or co-elution. […] Table 4(a) to 4(h) details the product distributions for mutant and substrate combinations where this has been elucidated to date.
(§3) Product structure and distributions following oxidation of substrates
Target sequence in this assay (P00259 whole entry): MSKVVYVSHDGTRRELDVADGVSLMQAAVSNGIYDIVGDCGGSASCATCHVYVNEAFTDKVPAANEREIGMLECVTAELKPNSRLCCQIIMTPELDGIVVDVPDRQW
Target sequence in this assay (P00183 whole entry): as the sequence (P00183 whole entry) above
Target sequence in this assay (P16640 whole entry, further chain): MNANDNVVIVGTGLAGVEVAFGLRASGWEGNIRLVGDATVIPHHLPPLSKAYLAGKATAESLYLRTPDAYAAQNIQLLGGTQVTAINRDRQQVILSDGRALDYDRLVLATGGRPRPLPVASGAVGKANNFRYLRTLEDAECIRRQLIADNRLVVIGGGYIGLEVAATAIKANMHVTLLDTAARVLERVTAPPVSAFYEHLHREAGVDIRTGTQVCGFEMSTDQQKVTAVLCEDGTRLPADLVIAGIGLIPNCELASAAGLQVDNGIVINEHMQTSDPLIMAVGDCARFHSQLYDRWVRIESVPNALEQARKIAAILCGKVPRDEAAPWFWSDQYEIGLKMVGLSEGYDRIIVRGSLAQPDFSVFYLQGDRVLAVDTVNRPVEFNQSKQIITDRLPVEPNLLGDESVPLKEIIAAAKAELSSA

[5] = biological target: T2, P450cam mutant Y96A, C334A (Pseudomonas putida, UniProt P00183, C335A/Y97A); format: biochemical, P. putida
T2 construct: reconstituted with putidaredoxin and putidaredoxin reductase
Experimental: as §1, §2, §3
(§4) active site mutants. All mutants shown below also contain the C334A

[6] = biological target: T3, P450cam mutant F87A-F96G-F193A (C334A) (Pseudomonas putida, UniProt P00183, C335A/F194A/F88A/Y97G); format: biochemical, P. putida
T3 construct: reconstituted with putidaredoxin and putidaredoxin reductase
Experimental: as §1, §2, §3, §4

[7] = biological target: T2, P450cam mutant Y96A, C334A; format: biochemical, P. putida; details: also contains C334A
Experimental: A solution containing 10 μM putidaredoxin, 2 μM putidaredoxin reductase, 1 μM cytochrome P-450cam mono-oyxgenase (wild-type or mutant) and 1 mM diphenylmethane in 100 mM KC1, 20 mM KH2 PO4 pH7.4 was preincubated at 25° C. in a shaker for 5 min. The enzymatic reaction was initiated by firstly adding NADH to a total concentration of 2 mM. Further four aliquots of NADH (to increase the NADH concentration by 1 mM each time) were added in intervals of 5 min and the reaction quenched after 30 min by adding 0.5 ml chloroform. The chloroform layer was analysed by gas chromatography.
as §2
All mutants listed below also contain the C334A mutation.
Turnover rate measured as NADH consumption rate
(nmole NADH/nmole P450cam/s).

[8] = biological target: T4, P450cam mutant Y96L, C334A (Pseudomonas putida, UniProt P00183, C335A/Y97L); experiment: Product distribution following oxidation of substrates, Y96L (also C334A); format: biochemical, P. putida
T4 construct: reconstituted with putidaredoxin and putidaredoxin reductase
Experimental: as §1, §2, §3, §4

[9] = biological target: T5, P450cam mutant Y96V, C334A (Pseudomonas putida, UniProt P00183, C335A/Y97V); experiment: Product distribution following oxidation of substrates, Y96V (also C334A); format: biochemical, P. putida
T5 construct: reconstituted with putidaredoxin and putidaredoxin reductase
Experimental: as §1, §2, §3, §4

[10] = biological target: T6, P450cam mutant Y96F, C334A (Pseudomonas putida, UniProt P00183, C335A/Y97F); format: biochemical, P. putida
T6 construct: reconstituted with putidaredoxin and putidaredoxin reductase
Experimental: as §1, §2, §3, §4

[11] = Wild type, 200 μM DTT, 200 μM test compound, phosphate buffer

Sequence of P-450cam mutant Y96A (P00183 2-415 Y97A): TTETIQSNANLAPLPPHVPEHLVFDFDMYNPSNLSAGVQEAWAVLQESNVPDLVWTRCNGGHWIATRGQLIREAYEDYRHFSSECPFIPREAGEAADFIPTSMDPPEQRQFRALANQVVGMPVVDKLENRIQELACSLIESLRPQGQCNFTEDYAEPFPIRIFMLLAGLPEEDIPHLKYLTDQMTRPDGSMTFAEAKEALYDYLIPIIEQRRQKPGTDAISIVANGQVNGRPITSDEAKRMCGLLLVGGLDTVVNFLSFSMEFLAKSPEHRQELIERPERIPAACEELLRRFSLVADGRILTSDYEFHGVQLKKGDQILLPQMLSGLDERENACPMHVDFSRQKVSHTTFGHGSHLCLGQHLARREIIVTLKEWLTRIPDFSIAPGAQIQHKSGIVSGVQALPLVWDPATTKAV
T3 sequence (P00259 whole entry): as the sequence (P00259 whole entry) above
T3 sequence (P16640 whole entry, further chain): as the sequence (P16640 whole entry, further chain) above
T3 sequence (P00183 2-415 F88A/Y97G/F194A/C335A): as the sequence (P00183 2-415 Y97A) above, with F87A, A96G, F193A, C334A counted along it
T2 sequence (P00259 whole entry): as the sequence (P00259 whole entry) above
T2 sequence (P00183 2-415 Y97A/C335A): as the sequence (P00183 2-415 Y97A) above, with C334A counted along it
T2 sequence (P16640 whole entry, further chain): as the sequence (P16640 whole entry, further chain) above
T5 sequence (P16640 whole entry): as the sequence (P16640 whole entry, further chain) above
T5 sequence (P00259 whole entry, further chain): as the sequence (P00259 whole entry) above
T5 sequence (P00183 2-415 Y97V/C335A): as the sequence (P00183 2-415 Y97A) above, with A96V, C334A counted along it
T6 sequence (P16640 whole entry): as the sequence (P16640 whole entry, further chain) above
T6 sequence (P00183 2-415 Y97F/C335A): as the sequence (P00183 2-415 Y97A) above, with A96F, C334A counted along it
T6 sequence (P00259 whole entry, further chain): as the sequence (P00259 whole entry) above
T4 sequence (P00259 whole entry): as above
T4 sequence (P16640 whole entry, further chain): as the sequence (P16640 whole entry, further chain) above
T4 sequence (P00183 2-415 Y97L/C335A): as the sequence (P00183 2-415 Y97A) above, with A96L, C334A counted along it

In the case of CCCCCCCCCCCCOS(=O)(=O)O [SDS], the percent displacement of bound DTT at 200 µM [1] is reported as 60% and the inhibition at 200 µM [2, 11] is reported as 20%.

c1ccc(Oc2ccccc2)cc1 [Diphenylether] was tested, and the percent displacement of bound DTT at 200 µM [1] was 50%, the inhibition at 200 µM [2, 11] was 5% and the “ΔSpin high/low (percentage of P-450 converted from low- to high-spin)” value [3] was 10%.

Work on c1ccc(-c2ccccc2)cc1 [Biphenyl] yielded an inhibition at 200 µM [1] of 90% and an inhibition at 200 µM [2] of 20%.

For c1ccc2c(c1)-c1cccc3cccc-2c13 [Fluoranthene], the Total products [4] was 0 area/10^6, the “Products (%): A” value ([4]; fluoranthene) was 0% and the “Products (%): B” value ([4]; fluoranthene) was 0%. The inhibition at 200 µM [1] was 10%, the inhibition at 200 µM [2] was 5% and the Total products [5] was 2.7 area/10^6. The “Products (%): A” value ([5]; fluoranthene) was 84%, the “Products (%): B” value ([5]; fluoranthene) was 16% and the Total products [6] was 0.2 area/10^6. The “Products (%): A” value ([6]; fluoranthene) was 0% and the “Products (%): B” value ([6]; fluoranthene) was 100%.

CCc1ccccc1 [Ethylbenzene] showed a percent displacement of bound DTT at 200 µM [1] of 40%.

With CCc1ccc2ccccc2c1 [2-Ethylnaphthalene] the percent displacement of bound DTT at 200 µM [1] was 20%.

In the case of CC1(C)[C@@H]2CC[C@@]1(C)C(=O)C2=O [(1R)-(-)-Camphorquinone], the percent displacement of bound DTT at 200 µM [1] is reported as 80%, the inhibition at 200 µM [2, 11] is reported as 80% and the “ΔSpin high/low (percentage of P-450 converted from low- to high-spin)” value [3] is reported as 80%.

CCCCCC(C)C [2-methyl heptane] was tested, and the “Turnover rate measured as NADH consumption rate” value (from here on “Turnover rate measured”) [7] was 2.1 nmole NADH/nmole P450cam/s.

Work on Cc1ccccc1 [Toluene] yielded a percent displacement of bound DTT at 200 µM [1] of 30%.

In the case of c1ccc2c(c1)CCCC2 [1,2,3,4-Tetrahydro naphthalene], the percent displacement of bound DTT at 200 µM [1] is reported as 40%, the inhibition at 200 µM [2, 11] is reported as 10% and the “ΔSpin high/low (percentage of P-450 converted from low- to high-spin)” value [3] is reported as 5%.

CCCC(=O)Oc1cccc2ccccc12 [1-Naphthylbutyrate] was tested, and the percent displacement of bound DTT at 200 µM [1] was 5% and the inhibition at 200 µM [2, 11] was 5%.

Compound CCCCCCCC/C=C\CCCCCCCC(=O)O [Oleic acid] has a percent displacement of bound DTT at 200 µM [1] of roughly 20% and an inhibition at 200 µM [2, 11] of roughly 10%.

For C1=CCCCC1 [Cyclohexene], the percent displacement of bound DTT at 200 µM [1] was 40% and the inhibition at 200 µM [2, 11] was 5%.

With C=Cc1ccccc1 [Styrene] the percent displacement of bound DTT at 200 µM [1] was 30%.

C=CC(=C)C [Isoprene] showed a percent displacement of bound DTT at 200 µM [1] of 10%.

Compound CC(C)=CCC/C(C)=C/CC/C(C)=C/CC/C=C(\C)CC/C=C(\C)CCC=C(C)C [Squalene] has a percent displacement of bound DTT at 200 µM [1] of 20%.

c1cc2ccc3cccc4ccc(c1)c2c34 [Pyrene] showed a Total products [4] of 0 area/10^6, a Total products [8] of 1.5 area/10^6 and a Total products [9] of 1.6 area/10^6. For the same compound, the Total products [5] was 1.2 area/10^6, the Total products [6] was 0.02 area/10^6 and the Total products [10] was 1.5 area/10^6.

With CC(C)C(C)C [2,3-dimethyl butane] the “Turnover rate measured” value [7] was 16.8 nmole NADH/nmole P450cam/s.

Work on O=C(c1ccccc1)C1CCCCC1 [Cyclohexylphenylketone] yielded an inhibition at 200 µM [2, 11] of 30%.

With CCC(C)(C)C [2,2-dimethyl butane] the “Turnover rate measured” value [7] was 14.0 nmole NADH/nmole P450cam/s.

For C=C(C)[C@H]1CC=C(C)C(=O)C1 [(S)-(+)-Carvone], the percent displacement of bound DTT at 200 µM [1] was 80%, the inhibition at 200 µM [2, 11] was 60% and the “ΔSpin high/low (percentage of P-450 converted from low- to high-spin)” value [3] was 10%.

In the case of CCC(CC)CC [3-ethyl pentane], the “Turnover rate measured” value [7] is reported as 16.2 nmole NADH/nmole P450cam/s.

For c1ccc(CCc2ccccc2)cc1 [Bibenzyl], the percent displacement of bound DTT at 200 µM [1] was 55%.
